In test [1] the test system is cellular pERK in Kuramochi (WT KRAS) cell-line. The test can be described thus: Cell based pERK assay (HTRF), Kuramochi. Particulars: Kuramochi (WT KRAS) cells, 2 hours incubation. As for the experimental part: (§1) Compounds were tested in a 384-well assay format for their ability to inhibit cellular pERK in Kuramochi (WT KRAS), MIA-PaCa-2 (KRAS-G12C), ASPC-1 (KRAS G12D), and NCI-H441 (KRAS-G12V) cell-lines. Compounds were serially diluted (1:3) in DMSO. On day −1, 80 uL of cells were plated per well in the 384 well tissue-culture plates (Greiner: Cat #781080) to seed 5000 cells per wells of AsPC-1 or 7500 cells of MIA-PaCa-2, NCI-H441, and Kuramochi cell lines in RPMI (Corning: Cat #10-040-CM) with 10% fetal bovine serum (FBS) (HyClone: Cat #SH30071-03) and 1× penicillin-streptomycin-glutamate (PSG) (Corning: Cat #30-009-CI) for […] and Kuramochi cell lines and DMEM (Corning: Cat #15-018-CM) with […] and 1× PSG for MKA-PaCa-2 cell line. The plates were then incubated overnight at 37° C. and 5% CO2. On day 0, 400 nL of compound/well was added into the cell plates and mixed 5 times by pipetting using a Beckmann Biomek FX. The cell plates were then incubated for 2 hours at 37° C. and 5% CO2. HTRF Advanced Phospho-ERK1/2 ([…]) Detection Kits (PerkinElmer: Cat #64AERPEG) were used to prepare the lysis and detection solution according to manufacturer protocol. Following the 2 hour incubation, 70 μL of medium was aspirated from the plates and 10 uL of lysis and detection solution was added to the plates using a Biotek EL406 washer and dispenser. Plates were sealed and stored overnight at room temperature. HTRF ratio (665 nm/615 nm) was read by Envision multimode reader (PerkinElmer) the next day. The TR-FRET ratios were normalized to a positive (saturating concentration of known inhibitor) and negative (DMSO) control and plotted against the log of compound concentration. IC50 values were defined as the compound concentration that causes a […] in normalized signal and were calculated using a sigmoidal dose-response model to generate curve fits.
In general terms: In TR-FRET formats the signal depends on donor and acceptor labels being close together.

For test [2], the system named is cellular pERK in MIA-PaCa-2 (KRAS-G12C) cell-line. The test is described as follows: Cell based pERK assay (HTRF), MIA-PaCa-2. Particulars: MIA-PaCa-2 (KRAS-G12C) cells, 2 hours incubation, read-out: MIAPaCa2 pERK EC50. As for the experimental part:
as §1

In test [3] the test system is cellular pERK in ASPC-1 (KRAS G12D) cell-line. The test can be described thus: Cell based pERK assay (HTRF), ASPC-1. The note with it: ASPC-1 (KRAS G12D) cells, 2 hours incubation. As for the experimental part:
as §1

For test [4], the system named is cellular pERK in NCI-H441 (KRAS-G12V) cell-line. The test can be described thus: Cell based pERK assay (HTRF), NCI-H441. Particulars: NCI-H441 (KRAS-G12V) cells, 2 hours incubation. The procedure: as §1

Molecules are shown by their SMILES. Read-outs that look alike come from different tables or passages of the source.

The EC50 is the concentration giving half of the maximal effect.

Consider `Oc1cc(-c2nc3c4c(nc(OC[C@@]56CCCN5C[C@H](F)C6)nc4c2F)N2CCCOC[C@@H]2CC3)c2c(Cl)cccc2c1` [Example 19-1, 5-chloro-4-((S)-1-fluoro-12-(((2R,7aS)-2-fluorotetrahydro-1H-pyrrolizin-7a(5H)-yl)methoxy)-4,5,5a,6,9,10-hexahydro-8H-7-oxa-3,10a,11,13-tetraazanaphtho[1,8-ab]heptalen-2-yl)naphthalen-2-ol], for which the EC50 in test [1] was 0.582 µM; in test [2] (Homo sapiens) it was above 1 µM; in test [3] (Homo sapiens, ASPC1), above 1 µM; in test [4] (Homo sapiens) it was above 1 µM.

Regarding `CCc1c(F)ccc2cc(O)cc(-c3nc4c5c(nc(OC[C@@]67CCCN6C[C@H](F)C7)nc5c3F)N3CCCC[C@H]3CC4)c12` [Example 2-1, 5-ethyl-6-fluoro-4-((S)-1-fluoro-11-(((2R,7aS)-2-fluorotetrahydro-1H-pyrrolizin-7a(5H)-yl)methoxy)-5,5a,6,7,8,9-hexahydro-4H-3,9a,10,12-tetraazabenzo[4,5]cyclohepta[1,2,3-de]naphthalen-2-yl)naphthalen-2-ol], the EC50 in test [1] amounted to 0.0247 µM; in test [2], 0.0549 µM; in test [3] (read-out: AsPC1 pERK EC50), 0.114 µM; in test [4], 0.0746 µM.

As for `CCc1c(F)ccc2cc(O)cc(-c3nc4c5c(nc(OC[C@@]67CCCN6C[C@H](F)C7)nc5c3F)N3CCCCC3(C)CC4)c12` (stereo partly drawn) [Example 14-1, 5-ethyl-6-fluoro-4-(1-fluoro-11-(((2R,7aS)-2-fluorotetrahydro-1H-pyrrolizin-7a(5H)-yl)methoxy)-5a-methyl-5,5a,6,7,8,9-hexahydro-4H-3,9a,10,12-tetraazabenzo[4,5]cyclohepta[1,2,3-de]naphthalen-2-yl)naphthalen-2-ol], the EC50 is 0.517 µM in test [1], above 1 µM in test [2], above 1 µM in test [3] (read-out: AsPC1 pERK EC50) and above 1 µM in test [4].

As for `CCc1c(F)ccc2cc(O)cc(-c3nc4c5c(nc(OC[C@@]67CCCN6C[C@H](F)C7)nc5c3F)N3CCCOC[C@@H]3CC4)c12` [Example 8-3], the EC50 was 0.00191 µM in test [1]; 0.00157 µM in test [2] (Homo sapiens); 0.00988 µM in test [3] (Homo sapiens, ASPC1); 0.0038 µM in test [4] (Homo sapiens).

Consider `C#Cc1c(F)ccc2cc(O)cc(-c3nc4c5c(nc(OC[C@@]67CCCN6C[C@H](F)C7)nc5c3F)N3CCOCC[C@H]3CCC4)c12` (single isomer, unassigned) [Example 10-1], for which the EC50 amounted to 0.00855 µM in test [1]; 0.0184 µM in test [2] (Homo sapiens); 0.208 µM in test [3] (Homo sapiens, ASPC1); 0.0688 µM in test [4] (Homo sapiens).

With `C#Cc1c(F)ccc2cc(O)cc(-c3nc4c5c(nc(OC[C@@]67CCCN6C[C@H](F)C7)nc5c3F)N3CCCCC[C@H]3CC4)c12` [Example 12-1, 5-ethynyl-6-fluoro-4-((S)-1-fluoro-12-(((2R,7aS)-2-fluorotetrahydro-1H-pyrrolizin-7a(5H)-yl)methoxy)-4,5,5a,6,7,8,9,10-octahydro-3,10a,11,13-tetraazanaphtho[1,8-ab]heptalen-2-yl)naphthalen-2-ol], the EC50 in test [1] amounted to 0.401 µM; in test [2] (Homo sapiens), 0.682 µM; in test [3] (Homo sapiens, ASPC1) it was 0.931 µM; in test [4] (Homo sapiens), 0.916 µM.

Turning to `Oc1cc(-c2nc3c4c(nc(OC[C@@]56CCCN5C[C@H](F)C6)nc4c2F)N2CCCOC[C@H]2CC3)c2c(F)c(F)ccc2c1` [Example 6-3], the EC50 turned out to be 0.0258 µM in test [1]; 0.0289 µM in test [2] (Homo sapiens); 0.0919 µM in test [3] (Homo sapiens, ASPC1); 0.048 µM in test [4] (Homo sapiens).

In the case of `C#Cc1c(F)ccc2cccc(-c3nc4c5c(nc(OC[C@@]67CCCN6[C@H](CF)CC7)nc5c3F)N3CCCOC[C@@H]3CC4)c12` [Example 6-10], the EC50 in test [1] was 0.289 µM; in test [2] (Homo sapiens), 0.28 µM; in test [3] (Homo sapiens, ASPC1) it was 0.706 µM; in test [4] (Homo sapiens), 0.46 µM.

As to `C#Cc1c(F)ccc2cc(O)cc(-c3nc4c5c(nc(OC[C@@]67CCCN6C[C@H](F)C7)nc5c3F)N3CCCCC[C@@H]3CC4)c12` [Example 20-1, 5-ethynyl-6-fluoro-4-((R)-1-fluoro-12-(((2R,7aS)-2-fluorotetrahydro-1H-pyrrolizin-7a(5H)-yl)methoxy)-4,5,5a,6,7,8,9,10-octahydro-3,10a,11,13-tetraazanaphtho[1,8-ab]heptalen-2-yl)naphthalen-2-ol], the EC50 in test [1] was 0.00634 µM; in test [2] (Homo sapiens), 0.00873 µM; in test [3] (Homo sapiens, ASPC1), 0.0425 µM; in test [4] (Homo sapiens), 0.0423 µM.

`C#Cc1c(F)ccc2cc(O)cc(-c3nc4c5c(nc(OC[C@@]67CCCN6C[C@H](F)C7)nc5c3F)N3CCCOC[C@@H]3C=C4)c12` [Example 6-19]: the EC50 in test [1] was 0.00401 µM; in test [2] (Homo sapiens) it was 0.00047 µM; in test [3] (Homo sapiens, ASPC1), 0.00118 µM; in test [4] (Homo sapiens), 0.00115 µM.

On to `C#Cc1c(F)c(F)cc2cc(O)cc(-c3nc4c5c(nc(OC[C@@]67CCCN6C[C@H](F)C7)nc5c3F)N3CCCOC[C@@H]3CC4)c12` [Example 6-26], for which the concentration for a half-maximal effect (EC50) in test [1] is 0.00261 µM; in test [2] (Homo sapiens), 0.00159 µM; in test [3] (Homo sapiens, ASPC1), 0.00119 µM; in test [4] (Homo sapiens), 0.00404 µM.

As for `C#Cc1c(F)ccc2cc(O)cc(-c3nc4c5c(nc(OC[C@@]67CCCN6C[C@H](F)C7)nc5c3F)N3CCCOCC3C[C@H]4F)c12` (some centres unmarked) [Example 22-6], the 50% effective concentration (EC50) in test [1] is 0.0288 µM; in test [2] (Homo sapiens), 0.0174 µM; in test [3] (Homo sapiens, ASPC1), 0.0971 µM; in test [4] (Homo sapiens), 0.0587 µM.

For the molecule `C#Cc1c(F)ccc2cc(N)cc(-c3nc4c5c(nc(OC[C@@]67CCCN6C[C@H](F)C7)nc5c3F)N3CCCOC[C@@H]3C[C@@H]4C)c12` [Example 7-10], the concentration giving a half-maximal response (EC50) in test [1] is 0.208 µM; in test [2] (Homo sapiens) it was 0.218 µM; in test [3] (Homo sapiens, ASPC1), above 0.697 µM; in test [4] (Homo sapiens), above 0.535 µM.

On to `C#Cc1c(F)ccc2cc(O)cc(-c3nc4c5c(nc(OC[C@@]67CCCN6C[C@H](F)C7)nc5c3F)N3CCCOC[C@@H]3C[C@@H]4F)c12` [Example 6-27], for which the 50% effective concentration (EC50) in test [1] was 0.0288 µM; in test [2] (Homo sapiens) it was 0.0174 µM; in test [3] (Homo sapiens, ASPC1), 0.0971 µM; in test [4] (Homo sapiens), 0.0587 µM.

As for `C#Cc1c(F)ccc2cc(O)cc(-c3nc4c5c(nc(OC[C@@]67CCCN6C[C@@]6(CC6(F)F)C7)nc5c3F)N3CCCOC[C@@H]3CC4)c12` [Example 22-3], the EC50 in test [1] amounted to 0.00255 µM; in test [2] (Homo sapiens) it was 0.00047 µM; in test [3] (Homo sapiens, ASPC1) it was 0.00375 µM; in test [4] (Homo sapiens), 0.00117 µM.

For the molecule `C#Cc1c(F)ccc2cc(N)cc(-c3nc4c5c(nc(OCC67CCCN6CCC7)nc5c3F)N3CCCOC[C@@H]3CC4)c12` [Example 7-3], the concentration giving a half-maximal response (EC50) is 0.00612 µM in test [1]; 0.00914 µM in test [2] (Homo sapiens); 0.118 µM in test [3] (Homo sapiens, ASPC1); 0.02 µM in test [4] (Homo sapiens).

With `C#Cc1c(F)ccc2cccc(-c3nc4c5c(nc(OC[C@@]67CCCN6[C@H](COC(=O)NCC)CC7)nc5c3F)N3CCCOC[C@@H]3CC4)c12` [Example 16-3], the EC50 in test [1] is 0.00523 µM; in test [2] (Homo sapiens), 0.00276 µM; in test [3] (Homo sapiens, ASPC1) it was 0.014 µM; in test [4] (Homo sapiens), 0.0127 µM.

With `C#Cc1c(F)ccc2cc(O)cc(-c3nc4c5c(nc(OC[C@@]67CCCN6C[C@H](F)C7)nc5c3F)N3CCCOCC3CC4)c12` (some centres unmarked) [Example 6-2], the EC50 came to 0.00446 µM in test [1]; 0.00101 µM in test [2] (Homo sapiens); 0.00374 µM in test [3] (Homo sapiens, ASPC1); 0.00209 µM in test [4] (Homo sapiens).

Take `C#Cc1c(F)ccc2cc(O)cc(-c3nc4c5c(nc(OC[C@@]67CCCN6C[C@H](F)C7)nc5c3F)N3CCCOCC3C[C@@H]4O)c12` (some centres unmarked) [Example 22-5]: the concentration giving a half-maximal response (EC50) is 0.0797 µM in test [1]; 0.07 µM in test [2] (Homo sapiens); 0.128 µM in test [3] (Homo sapiens, ASPC1); 0.212 µM in test [4] (Homo sapiens).

`C#Cc1c(F)ccc2cc(O)cc(-c3nc4c5c(nc(OC[C@@]67CCCN6[C@H](COC(=O)N(C)C)CC7)nc5c3F)N3CCCOC[C@@H]3CC4)c12` [Example 6-25]: the EC50 in test [1] came out at 0.0179 µM; in test [2] (Homo sapiens), 0.00387 µM; in test [3] (Homo sapiens, ASPC1), 0.00984 µM; in test [4] (Homo sapiens) it was 0.00457 µM.

(Values after patent publication US20240383922A1, “KRAS Modulating Compounds” (Gilead Sciences, Inc., priority 2023, published 2024).)
